Experiments:
[1] = target: T1, Human Neuropeptide Y2 Receptor (Homo sapiens, UniProt P49146); assay: Radioligand binding competition assay (RLB)
T1 construct: purchased CHEMICON HTS066M
T1 sequence (P49146 1-381): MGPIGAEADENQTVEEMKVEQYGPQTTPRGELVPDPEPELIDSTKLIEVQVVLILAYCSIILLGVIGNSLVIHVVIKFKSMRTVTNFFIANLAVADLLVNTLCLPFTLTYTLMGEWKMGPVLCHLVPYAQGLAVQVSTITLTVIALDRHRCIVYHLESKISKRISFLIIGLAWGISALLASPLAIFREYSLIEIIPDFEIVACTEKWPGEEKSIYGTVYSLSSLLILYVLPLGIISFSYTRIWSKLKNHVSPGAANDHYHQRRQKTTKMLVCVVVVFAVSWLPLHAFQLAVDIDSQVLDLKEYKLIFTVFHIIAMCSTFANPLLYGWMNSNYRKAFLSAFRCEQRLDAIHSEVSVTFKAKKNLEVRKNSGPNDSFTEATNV
Summary of the method: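 Membranes from cells expressing human Y2 receptor (0.5 μg protein/well) were incubated with radioligand and serially diluted peptides in 50 mM HEPES, 5 mM MgCl2, 1 mM CaCl2, 0.2% ovalbumin, pH 7.4, for 2 h at room temperature with shaking. Bound radioactivity was collected by filtration and counted; IC50 from sigmoidal nonlinear regression.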

human NPY1 receptor = target: T2, human NPY1 receptor (Homo sapiens, UniProt P25929); assay: HTRF cAMP Gi assay, hY1R; type: cell-based; conditions: Table 4; CHO-K1 cells
T2 construct: expressed in transfected cells; host or cells: CHO-K1
T2 sequence (P25929 1-384): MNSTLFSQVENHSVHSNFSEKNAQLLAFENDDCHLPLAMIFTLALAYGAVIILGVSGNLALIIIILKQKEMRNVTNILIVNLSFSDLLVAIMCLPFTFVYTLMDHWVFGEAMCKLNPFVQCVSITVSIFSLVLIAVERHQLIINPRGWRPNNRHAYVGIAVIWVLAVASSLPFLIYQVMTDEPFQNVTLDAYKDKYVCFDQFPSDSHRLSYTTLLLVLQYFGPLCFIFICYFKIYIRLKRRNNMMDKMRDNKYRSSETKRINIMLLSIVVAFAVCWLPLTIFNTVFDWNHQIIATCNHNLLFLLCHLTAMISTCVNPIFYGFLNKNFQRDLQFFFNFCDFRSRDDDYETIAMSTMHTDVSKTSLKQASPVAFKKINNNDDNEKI
Method: (§1) Briefly, the production of intracellular cAMP will generate a competition between unlabeled cAMP and exogenously added d2-cAMP for anti-cAMP antibodies conjugated to cryptate. CHO-K1 cells stably expressing the human NPY1, NPY2, NPY4 and NPY5 receptors were used with the cells brought to life from a frozen stock immediately before assay performance. 2000 cells per well were applied for all four NPY receptor subtype assays. A 384-well format was used applying a total volume of 20 μl using 5 μl cells, 2.5 μl peptide agonist, 2.5 μl forskolin and 5 μl of each of the fluorophores. […] Concentration-response evaluation of compounds was performed with 11 concentrations of agonist peptides (covering 3 decades). EC50 values were calculated by nonlinear regression using sigmoid concentration-response with variable slope.

human NPY4 receptor = target: T3, human NPY4 receptor (Homo sapiens, UniProt P50391); assay: HTRF cAMP Gi assay, hY4R; type: cell-based; conditions: Table 4; CHO-K1 cells
T3 construct: expressed in transfected cells; host or cells: CHO-K1
Source text: (§2) The Homogenous Time Resolved fluorescence (HTRF) technology optimized for Gi coupled receptors has thoroughly been described in Cisbio cAMP Gi kit manual. Briefly, the production of intracellular cAMP will generate a competition between unlabeled cAMP and exogenously added d2-cAMP for anti-cAMP antibodies conjugated to cryptate. CHO-K1 cells stably expressing the human NPY1, NPY2, NPY4 and NPY5 receptors were used with the cells brought to life from a frozen stock immediately before assay performance. 2000 cells per well were applied for all four NPY receptor subtype assays. A 384-well format was used applying a total volume of 20 μl using 5 μl cells, 2.5 μl peptide agonist, 2.5 μl forskolin and 5 μl of each of the fluorophores. […] Concentration-response evaluation of compounds was performed with 11 concentrations of agonist peptides (covering 3 decades). EC50 values were calculated by nonlinear regression using sigmoid concentration-response with variable slope.

[2] = target: T1, Human Neuropeptide Y2 Receptor; assay: Activity (RLB) after incubation in solutions at different pH values; type: binding; conditions: apparent Ki of filtrate after 2 h in buffer
Method: The filtration RLB assay was carried out in 96-well plates in a final volume of 100 μl per well. Freeze-dried test peptides were dissolved in 100% dimethyl sulfoxide (DMSO) to stock solutions of 1 mM and serial dilutions were performed in assay buffer (50 mM HEPES, 5 mM MgCl2, 1 mM CaCl2), pH 7.4) containing 0.2% ovalbumin. […] Next, 80 μL membranes (HTS066M, ChemiSCREEN™ Human Neuropeptide Y2 Receptor Membrane Preparation, CHEMICON) were added to each well to give a final protein concentration of 0.5 μg/well. The plates were sealed and incubated at room temperature for 2 hours in a plate shaker set at 400 rpm. The incubation was stopped by vacuum filtration onto 0.5% poly-ethylene amine (PEI) presoaked GF/C filters using a 96-well FilterMate™ harvester (Perkin Elmer) followed by four washes with 300 μl/well ice-cold wash buffer (50 mM HEPES, 500 mM NaCl, pH7.4). Filter plates were then dried for 60 min at room temperature and the bottom of the plates was sealed with backing tape UniFilter-96. Finally, 50 μl/well scintillation counter cocktail (Microscint20, Packard) was added and the radioactivity was counted in the Packard TopCount NXT scintillation counter. IC50 values (the half maximal inhibitory concentration of the agonist) were calculated by nonlinear regression analysis of sigmoidal dose-response curves.
Peptides (as TFA salts) were weighed out in a filter unit (Mini-UniPrep Syringeless Filter 0.45 μm, Whatman), and 0.1 M sodium diphosphate buffer at pH 6.4 or 7.4, respectively, or 0.2 M TRIS buffer at pH 8.3 was added to achieve 10 mg/ml final concentration. The peptide was (partially) dissolved by shaking the filter unit horizontally at approx. 400 rpm for 2 hours at room temperature. The sample was filtered to remove any insoluble particles.

human NPY2 receptor = target: T4, human NPY2 receptor (Homo sapiens, UniProt P49146); assay: HTRF cAMP Gi assay, hY2R
T4 sequence (P49146 1-381): T1 sequence (P49146 1-381)
Method: as §1

human NPY5 receptor = target: T5, human NPY5 receptor (Homo sapiens, UniProt Q15761); assay: HTRF cAMP Gi assay, hY5R
T5 sequence (Q15761 1-445): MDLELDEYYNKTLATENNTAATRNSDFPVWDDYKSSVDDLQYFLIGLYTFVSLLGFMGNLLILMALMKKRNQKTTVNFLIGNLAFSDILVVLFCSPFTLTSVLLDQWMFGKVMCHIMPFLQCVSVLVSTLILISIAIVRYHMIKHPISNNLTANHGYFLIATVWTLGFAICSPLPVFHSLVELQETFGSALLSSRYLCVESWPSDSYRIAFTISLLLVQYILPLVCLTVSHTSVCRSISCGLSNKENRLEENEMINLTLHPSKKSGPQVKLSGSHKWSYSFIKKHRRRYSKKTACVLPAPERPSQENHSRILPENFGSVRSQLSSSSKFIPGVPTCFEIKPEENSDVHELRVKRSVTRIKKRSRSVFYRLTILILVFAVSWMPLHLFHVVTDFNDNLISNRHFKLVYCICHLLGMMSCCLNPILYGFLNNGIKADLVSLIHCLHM
Source text: as §2

normal NMRI mice = assay: Effect on acute food intake in normal NMRI mice; type: in vivo; conditions: male NMRI mice, 10 nmol/kg subcutaneously once
Summary of the method: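 Male NMRI mice acclimatized in an HM-2 real-time food intake monitoring system, fasted 6 h before dark phase. Single subcutaneous dose of 10 nmol/kg peptide given 1 h before dark; n=7-8. Food intake expressed as % of vehicle group (50 mM phosphate pH7, 5% Mannitol).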

[3] = Table 3, human 125I-PYY (1-36) 0.02 nM, Y2 receptor membranes, read-out: Ki
[4] = Table 8, from DMSO stock, read-out: hY2R RLB Ki (nM) DMSO
[5] = pH6.1-6.2, assumed 10 mg/ml, read-out: RLB 6 (pH6.1-6.2)
[6] = pH7.1-7.2, assumed 10 mg/ml, read-out: RLB 7 (pH7.1-7.2)
[7] = pH8.1-8.2, assumed 10 mg/ml, read-out: RLB 8 (pH8.1-8.2)

T3 sequence (P50391 whole entry): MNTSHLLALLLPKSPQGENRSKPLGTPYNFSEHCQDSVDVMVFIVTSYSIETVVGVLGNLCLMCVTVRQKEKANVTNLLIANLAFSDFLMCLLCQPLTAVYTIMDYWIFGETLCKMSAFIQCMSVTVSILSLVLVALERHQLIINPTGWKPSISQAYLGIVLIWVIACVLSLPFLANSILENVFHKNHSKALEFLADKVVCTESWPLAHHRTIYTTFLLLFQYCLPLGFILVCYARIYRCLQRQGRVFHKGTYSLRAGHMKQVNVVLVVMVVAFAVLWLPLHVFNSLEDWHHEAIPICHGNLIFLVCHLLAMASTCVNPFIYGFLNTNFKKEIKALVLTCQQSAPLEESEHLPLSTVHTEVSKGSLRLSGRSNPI

| Ki [1, 3] | Ki [1, 4] | EC50 (human NPY1 receptor) | EC50 (human NPY4 receptor) | Ki [2, 5] | Ki [2, 6] | Ki [2, 7] | EC50 (human NPY2 receptor) | EC50 (human NPY5 receptor) | Compound | Acute Food Intake 24 h [% vehicle] (normal NMRI mice) |
| --- | --- | --- | --- | --- | --- | --- | --- | --- | --- | --- |
| 0.63 nM | 4.9 nM | > 5000 nM | > 5000 nM | 6.3 nM | 6.3 nM | 6.3 nM | 0.15 nM | > 5000 nM | CC[C@H](C)[C@H](NC(=O)[C@H](CCC(=O)O)NC(=O)[C@H](CCC(=O)O)NC(=O)[C@@H]1CCCN1C(=O)[C@H](CO)NC(=O)[C@H](C)NC(=O)[C@H](CC(=O)O)NC(=O)[C@H](CCC(=O)O)NC(=O)[C@H](CCC(=O)O)NC(=O)[C@@H]1CCCN1C(=O)[C@H](CCCCNC(=O)COCCOCCNC(=O)COCCOCCNC(=O)CC[C@H](NC(=O)CCCCCCCCCCCCCCCCC(=O)O)C(=O)O)NC(=O)[C@H](C)NC(=O)[C@@H]1CCCN1C(=O)[C@H](C)NC(=O)CC(C)C)C(=O)N[C@@H](CCC(N)=O)C(=O)N[C@@H](CCCNC(=N)N)C(=O)N[C@@H](Cc1ccc(O)cc1)C(=O)N[C@@H](Cc1ccc(O)cc1)C(=O)N[C@H](C(=O)N[C@@H](CO)C(=O)N[C@@H](CC(C)C)C(=O)N[C@@H](CCCNC(=N)N)C(=O)N[C@@H](Cc1c[nH]cn1)C(=O)N[C@@H](Cc1ccc(O)cc1)C(=O)N[C@@H](Cc1ccc(O)cc1)C(=O)N[C@@H](CC(N)=O)C(=O)N[C@@H](Cc1c[nH]c2ccccc12)C(=O)N[C@@H](CC(C)C)C(=O)N[C@H](C(=O)N[C@@H](CCCNC(=N)N)C(=O)N[C@@H](CCC(N)=O)C(=O)N[C@@H](CCCNC(=N)N)C(=O)N[C@@H](Cc1ccc(O)cc1)C(N)=O)[C@@H](C)O)C(C)C [Compound 23, N{alpha-4}-(3-methylbutanoyl)-N{epsilon-7}-[2-(2-{2-[2-(2-{2-[(4S)-4-carboxy-4-(17-carboxyheptadecanamido)butanamido]ethoxy}ethoxy)acetamido]ethoxy}ethoxy)acetamido]-[4A,6A,7K,9E,17I,18Q,22V,28Y,30W,31L]hPYY (4-36)] |  |
| 0.24 nM | 2 nM | > 5000 nM | > 5000 nM | 3.4 nM | 3.1 nM | 2.5 nM | 0.119 nM | > 5000 nM | CC[C@H](C)[C@H](NC(=O)[C@H](CCC(=O)O)NC(=O)[C@H](CCC(=O)O)NC(=O)[C@@H]1CCCN1C(=O)[C@H](CO)NC(=O)[C@H](C)NC(=O)[C@H](CC(=O)O)NC(=O)[C@H](C)NC(=O)[C@H](CCC(=O)O)NC(=O)[C@@H]1CCCN1C(=O)[C@H](CCCCNC(=O)COCCOCCNC(=O)COCCOCCNC(=O)CC[C@H](NC(=O)CCCCCCCCCCCCCCCCC(=O)O)C(=O)O)NC(=O)[C@H](CCC(=O)O)NC(=O)[C@@H]1CCCN1C(=O)[C@H](C)NC(=O)CC(C)C)C(=O)N[C@@H](CCC(N)=O)C(=O)N[C@@H](CCCNC(=N)N)C(=O)N[C@@H](Cc1ccc(O)cc1)C(=O)N[C@@H](Cc1ccc(O)cc1)C(=O)N[C@H](C(=O)N[C@@H](CO)C(=O)N[C@@H](CC(C)C)C(=O)N[C@@H](CCCNC(=N)N)C(=O)N[C@@H](Cc1c[nH]cn1)C(=O)N[C@@H](Cc1ccc(O)cc1)C(=O)N[C@@H](Cc1ccc(O)cc1)C(=O)N[C@@H](CC(N)=O)C(=O)N[C@@H](Cc1c[nH]c2ccccc12)C(=O)N[C@@H](CC(C)C)C(=O)N[C@H](C(=O)N[C@@H](CCCNC(=N)N)C(=O)N[C@@H](CCC(N)=O)C(=O)N[C@@H](CCCNC(=N)N)C(=O)N[C@@H](Cc1ccc(O)cc1)C(N)=O)[C@@H](C)O)C(C)C [Compound 53, N{alpha-4}-(3-methylbutanoyl)-N{epsilon-7}-[2-(2-{2-[2-(2-{2-[(4S)-4-carboxy-4-(17-carboxyheptadecanamido)butanamido]ethoxy}ethoxy)acetamido]ethoxy}ethoxy)acetamido]-[4A,7K,9E,10A,17I,18Q,22V,28Y,30W,31L]hPYY (4-36)] |  |
| 3.09 nM |  | > 5000 nM | > 5000 nM |  |  |  | 0.106 nM | > 5000 nM | CC(C)CC(=O)N[C@@H](C)C(=O)N1CCC[C@H]1C(=O)N[C@@H](CCC(=O)O)C(=O)N[C@@H](CCCCNC(=O)COCCOCCNC(=O)COCCOCCNC(=O)CC[C@H](NC(=O)CCCCCCCCCCCCCCCCC(=O)O)C(=O)O)C(=O)N1CCC[C@H]1C(=O)N[C@@H](CCC(=O)O)C(=O)N[C@@H](CCC(=O)O)C(=O)N[C@@H](CC(=O)O)C(=O)N[C@@H](C)C(=O)N[C@@H](CCC(=O)O)C(=O)N1CCC[C@H]1C(=O)N[C@@H](CCC(=O)O)C(=O)N[C@@H](CCC(=O)O)C(=O)N[C@@H](CC(C)C)C(=O)N[C@@H](CCC(N)=O)C(=O)N[C@@H](CCCNC(=N)N)C(=O)N[C@@H](Cc1ccc(O)cc1)C(=O)N[C@@H](Cc1ccc(O)cc1)C(=O)N[C@H](C(=O)N[C@@H](CO)C(=O)N[C@@H](CC(C)C)C(=O)N[C@@H](CCCNC(=N)N)C(=O)N[C@@H](Cc1c[nH]cn1)C(=O)N[C@@H](Cc1ccc(O)cc1)C(=O)N[C@@H](Cc1ccc(O)cc1)C(=O)N[C@@H](CC(N)=O)C(=O)N[C@@H](Cc1c[nH]c2ccccc12)C(=O)N[C@@H](CC(C)C)C(=O)N[C@H](C(=O)N[C@@H](CCCNC(=N)N)C(=O)N[C@@H](CCC(N)=O)C(=O)N[C@@H](CCCNC(=N)N)C(=O)N[C@@H](Cc1ccc(O)cc1)C(N)=O)[C@@H](C)O)C(C)C [Compound 188, N{alpha-4}-(3-methylbutanoyl)-N{epsilon-7}-[2-(2-{2-[2-(2-{2-[(4S)-4-carboxy-4-(17-carboxyheptadecanamido)butanamido]ethoxy}ethoxy)acetamido]ethoxy}ethoxy)acetamido]-[4A,7K,9E,13E,18Q,22V,28Y,30W,31L]hPYY (4-36)] | 55 % vehicle |

Source: patent publication US12559529B2, “NPY2 receptor agonists” (Boehringer Ingelheim International GmbH, priority 2019, dated 2026)
